Among the data in ChEMBL document CHEMBL5291721, “A preclinical secondary pharmacology resource illuminates target-adverse drug reaction associations of marketed drugs” (Nat Commun, 2023) are AC50 values, retold here.

The target of one experiment is T1, B1 bradykinin receptor (Homo sapiens, UniProt P46663).
T1 sequence (P46663 whole entry): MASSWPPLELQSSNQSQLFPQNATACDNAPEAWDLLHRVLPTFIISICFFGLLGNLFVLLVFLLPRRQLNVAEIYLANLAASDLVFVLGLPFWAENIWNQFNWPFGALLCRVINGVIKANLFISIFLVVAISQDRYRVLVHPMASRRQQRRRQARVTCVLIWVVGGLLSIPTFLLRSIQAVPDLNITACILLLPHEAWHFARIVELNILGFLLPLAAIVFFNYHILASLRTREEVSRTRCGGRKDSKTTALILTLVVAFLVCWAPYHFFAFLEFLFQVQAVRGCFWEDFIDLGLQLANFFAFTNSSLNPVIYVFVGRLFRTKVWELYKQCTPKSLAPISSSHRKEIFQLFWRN

Experiment [1] has as its target T2, Corticotropin-releasing factor receptor 2 (Homo sapiens, UniProt Q13324).
T2 sequence (Q13324 whole entry): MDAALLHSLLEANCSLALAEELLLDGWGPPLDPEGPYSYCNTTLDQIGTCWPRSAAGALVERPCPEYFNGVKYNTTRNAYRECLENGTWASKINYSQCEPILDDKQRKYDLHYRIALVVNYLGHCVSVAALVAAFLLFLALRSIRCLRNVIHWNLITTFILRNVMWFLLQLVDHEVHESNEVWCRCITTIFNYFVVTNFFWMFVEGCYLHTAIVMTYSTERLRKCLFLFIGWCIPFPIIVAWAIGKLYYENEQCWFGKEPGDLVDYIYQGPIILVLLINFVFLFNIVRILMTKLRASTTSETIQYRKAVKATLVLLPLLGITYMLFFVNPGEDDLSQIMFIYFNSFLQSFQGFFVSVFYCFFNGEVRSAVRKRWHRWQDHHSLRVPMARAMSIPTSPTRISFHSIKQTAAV

Experiment [2] deals with T3, Neuropeptide Y receptor type 2 (Homo sapiens, UniProt P49146).
T3 sequence (P49146 whole entry): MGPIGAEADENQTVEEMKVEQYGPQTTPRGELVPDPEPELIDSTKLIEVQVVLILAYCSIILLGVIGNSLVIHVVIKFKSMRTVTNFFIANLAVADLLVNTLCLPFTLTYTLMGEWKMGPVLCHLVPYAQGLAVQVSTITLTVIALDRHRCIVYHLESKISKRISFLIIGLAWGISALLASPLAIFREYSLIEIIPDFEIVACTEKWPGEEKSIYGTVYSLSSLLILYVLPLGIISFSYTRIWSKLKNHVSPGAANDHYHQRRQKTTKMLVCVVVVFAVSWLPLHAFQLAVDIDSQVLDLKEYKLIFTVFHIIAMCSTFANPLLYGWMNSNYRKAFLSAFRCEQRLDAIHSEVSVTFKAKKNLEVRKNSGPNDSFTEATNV

For the next experiment, the target named is Glucagon receptor (Homo sapiens, UniProt P47871).
Chain of Glucagon receptor (P47871 whole entry): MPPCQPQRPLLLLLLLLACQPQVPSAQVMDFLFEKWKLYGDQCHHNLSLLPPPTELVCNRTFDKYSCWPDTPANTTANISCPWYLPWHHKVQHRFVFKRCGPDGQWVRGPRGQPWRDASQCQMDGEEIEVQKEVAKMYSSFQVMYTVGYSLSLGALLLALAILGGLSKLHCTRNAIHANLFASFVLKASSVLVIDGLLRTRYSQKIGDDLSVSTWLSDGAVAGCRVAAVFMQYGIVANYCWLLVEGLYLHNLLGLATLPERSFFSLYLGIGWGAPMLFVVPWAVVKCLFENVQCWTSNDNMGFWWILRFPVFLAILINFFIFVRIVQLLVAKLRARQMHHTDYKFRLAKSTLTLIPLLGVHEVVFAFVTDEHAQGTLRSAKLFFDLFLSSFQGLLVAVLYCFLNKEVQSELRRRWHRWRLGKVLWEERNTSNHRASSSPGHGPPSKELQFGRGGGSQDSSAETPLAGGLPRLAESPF
Experiment [3] has as its target T4, Gastric inhibitory polypeptide receptor (Homo sapiens, UniProt P48546).
T4 sequence (P48546 whole entry): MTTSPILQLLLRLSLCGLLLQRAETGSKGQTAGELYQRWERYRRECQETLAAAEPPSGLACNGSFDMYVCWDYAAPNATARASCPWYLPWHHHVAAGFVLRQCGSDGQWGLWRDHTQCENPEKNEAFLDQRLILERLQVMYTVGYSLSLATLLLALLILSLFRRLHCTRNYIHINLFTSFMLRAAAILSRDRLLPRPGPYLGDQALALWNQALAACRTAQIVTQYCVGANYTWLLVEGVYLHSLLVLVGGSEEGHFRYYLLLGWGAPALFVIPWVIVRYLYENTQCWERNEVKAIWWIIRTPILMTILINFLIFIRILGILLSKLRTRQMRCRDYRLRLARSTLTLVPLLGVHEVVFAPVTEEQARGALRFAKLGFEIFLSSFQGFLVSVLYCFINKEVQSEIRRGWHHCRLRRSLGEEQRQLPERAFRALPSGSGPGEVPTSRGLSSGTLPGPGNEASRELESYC

Experiment [4] addresses 5-hydroxytryptamine receptor 2A (Homo sapiens, UniProt P28223). Type of experiment: functional, cell-based.
In experiment [5] the target is 5-hydroxytryptamine receptor 2B (Homo sapiens, UniProt P41595).
Chain of 5-hydroxytryptamine receptor 2B (P41595 whole entry): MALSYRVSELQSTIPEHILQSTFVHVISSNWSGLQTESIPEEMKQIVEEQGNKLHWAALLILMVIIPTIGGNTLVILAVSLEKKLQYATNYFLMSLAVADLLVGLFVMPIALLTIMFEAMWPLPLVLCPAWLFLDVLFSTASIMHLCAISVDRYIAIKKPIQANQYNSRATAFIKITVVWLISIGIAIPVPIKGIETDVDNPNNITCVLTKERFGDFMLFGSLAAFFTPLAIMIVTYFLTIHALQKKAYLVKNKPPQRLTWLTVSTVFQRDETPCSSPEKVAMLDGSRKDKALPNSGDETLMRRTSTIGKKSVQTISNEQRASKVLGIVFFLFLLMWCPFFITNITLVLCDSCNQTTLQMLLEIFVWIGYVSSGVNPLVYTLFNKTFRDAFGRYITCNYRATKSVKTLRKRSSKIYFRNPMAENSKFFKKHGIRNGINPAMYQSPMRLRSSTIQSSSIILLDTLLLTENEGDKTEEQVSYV
Experiment [6] addresses T5, 5-hydroxytryptamine receptor 1A (Homo sapiens, UniProt P08908).
T5 sequence (P08908 whole entry): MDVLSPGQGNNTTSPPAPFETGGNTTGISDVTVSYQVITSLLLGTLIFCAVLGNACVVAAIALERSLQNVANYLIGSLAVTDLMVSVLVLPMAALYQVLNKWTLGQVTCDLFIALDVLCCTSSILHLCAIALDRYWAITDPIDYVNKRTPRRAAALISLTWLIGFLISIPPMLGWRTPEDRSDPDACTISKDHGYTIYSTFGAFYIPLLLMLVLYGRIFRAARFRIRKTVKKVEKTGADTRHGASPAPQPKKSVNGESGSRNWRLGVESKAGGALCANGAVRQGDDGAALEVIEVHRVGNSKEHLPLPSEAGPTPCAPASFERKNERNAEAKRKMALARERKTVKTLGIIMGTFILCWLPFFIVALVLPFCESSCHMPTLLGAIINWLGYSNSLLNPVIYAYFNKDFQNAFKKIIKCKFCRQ

Where only a bound is given, the exact number is not on record here.
Note: assay procedure not described here.

Chain of 5-hydroxytryptamine receptor 2A (P28223 whole entry): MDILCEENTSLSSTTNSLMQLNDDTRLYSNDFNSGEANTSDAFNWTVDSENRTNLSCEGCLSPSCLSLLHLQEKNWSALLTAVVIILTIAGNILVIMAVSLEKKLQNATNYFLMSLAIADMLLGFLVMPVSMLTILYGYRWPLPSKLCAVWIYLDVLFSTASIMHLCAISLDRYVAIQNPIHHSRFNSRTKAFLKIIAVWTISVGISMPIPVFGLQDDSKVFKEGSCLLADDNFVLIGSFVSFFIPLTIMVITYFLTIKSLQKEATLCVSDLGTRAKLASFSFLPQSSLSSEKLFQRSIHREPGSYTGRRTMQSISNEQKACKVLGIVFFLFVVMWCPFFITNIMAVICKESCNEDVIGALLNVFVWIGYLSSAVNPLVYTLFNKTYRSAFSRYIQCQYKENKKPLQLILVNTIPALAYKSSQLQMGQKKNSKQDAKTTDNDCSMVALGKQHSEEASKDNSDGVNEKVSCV

`CC(C)COCC(CN(Cc1ccccc1)c1ccccc1)N1CCCC1` (stereo not drawn) [BEPRIDIL]: the AC50 (on B1 bradykinin receptor; in experiment [1]; in experiment [2]; on Glucagon receptor; in experiment [3]; in experiment [4]) was greater than 30 µM throughout.

Take `O=C(O)c1cn(C2CC2)c2cc(N3CCNCC3)c(F)cc2c1=O` [CIPROFLOXACIN]: the AC50 (on B1 bradykinin receptor; in experiment [1]; in experiment [2]; on Glucagon receptor; in experiment [3]) was greater than 30 µM each time.

Consider `CC(CCc1ccc(O)cc1)NCCc1ccc(O)c(O)c1` (stereo not drawn) [DOBUTAMINE], for which the AC50 (usually the concentration at which the activity in the assay is half-maximal) was greater than 30 µM on B1 bradykinin receptor; greater than 30 µM in experiment [1]; greater than 30 µM in experiment [2]; greater than 10 µM in experiment [5]; greater than 30 µM on Glucagon receptor; greater than 30 µM in experiment [3]. This molecule also showed a concentration at half-maximal activity (AC50) in experiment [6] greater than 10 µM.

In the case of `CCC(=O)O[C@]1(C(=O)SCF)[C@H](C)C[C@H]2[C@@H]3C[C@H](F)C4=CC(=O)C=C[C@]4(C)[C@@]3(F)[C@@H](O)C[C@@]21C` [FLUTICASONE PROPIONATE], the AC50 on B1 bradykinin receptor was greater than 30 µM; in experiment [1] it was greater than 30 µM; in experiment [2] it was greater than 30 µM; in experiment [5], greater than 10 µM; at Glucagon receptor, greater than 30 µM; in experiment [3], greater than 30 µM. For the same molecule, the AC50 in experiment [6] is greater than 10 µM.

Turning to `Cc1cnc(C(=O)NCCc2ccc(S(=O)(=O)NC(=O)NC3CCCCC3)cc2)cn1` [GLIPIZIDE], the AC50 is greater than 30 µM at B1 bradykinin receptor; greater than 30 µM in experiment [1]; greater than 30 µM in experiment [2]; greater than 30 µM at Glucagon receptor; greater than 30 µM in experiment [3]; greater than 10 µM in experiment [6].

Take `CC(C)NCC(O)c1ccc(O)c(O)c1` (stereo not drawn) [ISOPROTERENOL]: the half-maximal activity concentration (AC50) on B1 bradykinin receptor was greater than 30 µM; in experiment [1], greater than 30 µM; in experiment [2], greater than 30 µM; in experiment [5] it was greater than 10 µM; at Glucagon receptor it was greater than 30 µM; in experiment [3], greater than 30 µM. In experiment [6], this molecule showed an AC50 greater than 10 µM.

For `CN1CCN(C2=Nc3ccccc3Oc3ccc(Cl)cc32)CC1` [LOXAPINE], the concentration at half-maximal activity (AC50) at B1 bradykinin receptor is greater than 30 µM; in experiment [1], greater than 30 µM; in experiment [2], greater than 30 µM; at Glucagon receptor, greater than 30 µM; in experiment [3] it was greater than 30 µM; in experiment [6] it was 33.1 µM.

With `OC1(c2ccc(Cl)cc2)c2ccccc2C2=NCCN21` (stereo not drawn) [MAZINDOL], the AC50 at B1 bradykinin receptor was greater than 30 µM; in experiment [1] it was greater than 30 µM; in experiment [2], greater than 30 µM; in experiment [5], greater than 10 µM; at Glucagon receptor, greater than 30 µM; in experiment [3], greater than 30 µM. In addition, the half-maximal activity concentration (AC50) in experiment [6] is greater than 10 µM.

For the molecule `CC12CC3CC(C)(C1)CC(N)(C3)C2` [MEMANTINE], the AC50 is greater than 30 µM at B1 bradykinin receptor; greater than 30 µM in experiment [1]; greater than 30 µM in experiment [2]; greater than 30 µM at Glucagon receptor; greater than 30 µM in experiment [3]; greater than 10 µM in experiment [6].

`CCOC(=O)C1=C(C)NC(C)=C(C(=O)OC)C1c1cccc([N+](=O)[O-])c1` (stereo not drawn) [NITRENDIPINE]: the AC50 is greater than 30 µM at B1 bradykinin receptor; greater than 30 µM in experiment [1]; greater than 30 µM in experiment [2]; greater than 10 µM in experiment [5]; greater than 30 µM on Glucagon receptor; greater than 30 µM in experiment [3]. In experiment [6], this molecule displayed a concentration at half-maximal activity (AC50) greater than 10 µM.

For the molecule `[H]/N=C(/N)N/C(=N/[H])NCCc1ccccc1` [PHENFORMIN], the AC50 on B1 bradykinin receptor was greater than 30 µM; in experiment [1] it was greater than 30 µM; in experiment [2], greater than 30 µM; in experiment [5], 8.9 µM; at Glucagon receptor it was greater than 30 µM; in experiment [3], greater than 30 µM. This molecule had an AC50 in experiment [6] greater than 10 µM.

Turning to `CC(N)C(O)c1ccccc1` (stereo not drawn) [PHENYLPROPANOLAMINE], the half-maximal activity concentration (AC50) on B1 bradykinin receptor is greater than 30 µM; in experiment [1] it was greater than 30 µM; in experiment [2], greater than 30 µM; in experiment [5] it was greater than 10 µM; at Glucagon receptor, greater than 30 µM; in experiment [3], greater than 30 µM. For the same molecule, in experiment [6], the half-maximal activity concentration (AC50) is greater than 10 µM.
